This is an account of results in patent US8492417B2, “Topical use of thiazolidine derivatives against consequences of oxidative stress of skin” (Exsymol S.A.M., priority 2007, dated 2013).

Where two headings read alike, the source gives them in different places.

Series [1] is described as follows: "in tubo" taurine formation in contact with H2O2 solution (HPLC). The conditions noted are these: 4 equivalents H2O2, pH 7.4, 37° C. It is filed as physicochemical.
A short description of series [2]: Scavenging speed constant of the hydroxyl radical, Ks (OH°). More on the design: unit not given here. As to conditions: pH 7,4, 37° C., one hour incubation; middle values of five experiments. The protocol: The method, described by Rehman A. and coll.
Experimentally, the tested substance is dissolved in a buffered medium of pH 7,4 to which is added a generating medium of OH^o. Following one hour of incubation at 37° C., the reaction is stopped with the help of trichloroacetic acid. […]

Series [3] has as its system V79 cells. Kind of series: Protection against "UVA-induced" stress: intracellular ROS by CMDCF probe. Type of series: cell-based, hamster. The conditions noted are these: irradiated cells, UVA 5 J. cm−2. The protocol: The study has been carried out according to identical experimental conditions (sowing) to those presented in the here-above tests 3 and 4, but with an exposure of V79 cells to ultraviolet radiation (λ315-400 nm) with the moderate dose of 5 J. cm^−2 (“UVA-induced” stress).
The formation of intracellular ROS is measured with the permeant fluorescent probe “CMDCF” derived from fluorescein (10 μm, 15 minutes incubation).
The percentages of CMDCF cells said “positive” (cells with intracellular formation of ROS are presented below in table 6, in comparison with unirradiated cells, then with cells treated with N-acetyl-cysteine (reference molecule) and different concentrations of 2-oxo-1,3-thiazolidine compound.

Series [4] has as its system V79 fibroblastic line. Briefly: Anti-clastogen effect: micronucleus cells under genotoxic 4-HNE stress. It is filed as cell-based, hamster. The conditions noted are these: stress-HNE 1 ppm. From the text:
The study has been carried out according to identical experimental conditions (sowing) to those presented in the here-above test 3, with cell exposure to a state of “4-HNE stress ” at […] genotoxic concentration, as described (Eckel P. M., Molecular Aspects of Medicine (2003), vol. 24, pp. 161-165) as generating cellular DNA breaks and micronucleus formation (clastogen effect).
The micronucleus cell number is counted following reading of the slides with epifluorescence microscope, on 2000 cells and after marking with orange acridine (DNA colorant).
Results, taking the middle values obtained from two independent experiments, are presented below in table 4, in comparison with those for N-acetyl-cysteine at 2 mM chosen as a positive reference molecule (number of micronucleus cells close to the non-exposed control).

The nature of series [5]: "Global" antioxidant power: desoxyribose protection with oxidase/hypoxanthine xanthine pair. As to conditions: pH 7.5. How it is done: The production system of ROS, described by Nowak D. and coll. […] This is characterized by the sum of the effects against the superoxide anion O2^o−, hydrogen peroxide H2O2, and the hydroxyl radical OH^o, and is expressed by following the percentage of protection of a “detecting” molecule, desoxyribose.
Experimentally, the tested substance is dissolved in a buffered medium at pH 7.5, supplemented with NaCl, MgCl2 et CaCl2. After their incubation at 37° C. in the presence of the oxidase/hypoxanthine xanthine pair, EDTA and desoxyribose, the reaction is stopped with the help of trichloroacetic acid. After addition of thiobarbituric acid, an optic density measure at 532 nm is carried out, expressed later as percentage of desoxyribose protection (following comparison with a control).

The subject of series [6] is V79 fibroblastic line. Briefly: Neutralization of 4-hydroxynonenal cytotoxicity, MTT cellular viability. It is filed as cell-based, hamster. The conditions noted are these: 4-HNE 6 ppm. The protocol:
The experimental study has been carried out on a fibroblastic line of hamster called V79, maintained in humid atmosphere at 37° C. and 5% CO2, then seeded in 96 wells plates at the rate of 0.5.10^4 cells per well.
The cellular viability of fibroblasts is measured by the incorporation method to the bromide of 3-(4,5-dimethylthiazol-2-yl)-2,5-diphenyltetrazolium (or MTT). The results, taking the middle values obtained from three independent experiments, are presented below in table 3, in comparison with those for the N-acetyl-cysteine at 2 mM chosen as a positive reference molecule (total restoration of cellular viability in relation to a control and the non stressed cells with 4-HNE).

Series [7] in a line: physchem.
For series [8] the following is noted: literature value (Cabelli 1983); cited from earlier work.

`S=C1NCCS1` [2-thiono-1,3-thiazolidine]: the “taurine (% formation)” value in series [1] (3 h) is 30%; in series [1] (7 h) it was 50%; in series [1] (24 h) it was 77%; in series [1] (48 h) it was 89%.

By viability is commonly meant a read-out of living cells in per cent, often relative to untreated cells. As usually defined, the logP is the decadic logarithm of the partition coefficient of the neutral form, usually between octanol and water. For `O=C1NCCS1` [2-oxo-1,3-thiazolidine], in series [2], the “Ks (OH°)” value stood at 13.52. Besides, the “% of CMDCF positive cells” value turned out to be 24.7% in series [3] (compound 0.625 mM), 15.3% in series [3] (compound 1.25 mM), 12% in series [3] (compound 2.5 mM) and 7.3% in series [3] (compound 5 mM). Further, in series [4] (compound 5 mM), the “Cell number with micronucleus/2000 cells” value came to 21. For the same molecule, the “% protection” value in series [5] (compound 10 mM) is 19%; in series [5] (compound 20 mM), 25%. Also, the viability at 100 µM in series [6] (compound 0.1 mM) was 40%. For the same molecule, the viability at 1000 µM in series [6] (compound 1 mM) is 58%. The viability at 2500 µM in series [6] (compound 2.5 mM) is 100%. Also, the “taurine (% formation)” value worked out at 38% in series [1] (3 h), 56% in series [1] (7 h), 82% in series [1] (24 h) and 93% in series [1] (48 h). This molecule also returned a logP in series [7] of -0.27.

As for `O=C1O[C@H]([C@@H](O)CO)C(O)=C1O` [ascorbic acid], the “Ks (OH°)” value in series [8] is listed as 10.1 Gigas.M-1.s-1.

As for `CC(=O)N[C@@H](CS)C(=O)O` [N-acetyl-cysteine, reference compound], the “% of CMDCF positive cells” value in series [3] (compound 5 mM) is 4%. Also, the “Cell number with micronucleus/2000 cells” value in series [4] (compound 2 mM) was determined as 27. Further, in series [6] (compound 2 mM), the viability at 2000 µM came out at 126%.
